Assay results reported in the supplement of paper PMC10307832.

Tests used:
Assay in all cases: relative viability (nuclei count vs DMSO), 5 days (fraction); higher = more cells survive
[1] = compound: O=C(C[C@H]1NCCC[C@@H]1O)Cn1cnc2cc(Br)c(Cl)cc2c1=O (racemic) [Halofuginone] + Nc1nc2[nH]cc(CCc3ccc(C(=O)N[C@@H](CCC(=O)O)C(=O)O)cc3)c2c(=O)[nH]1 [Pemetrexed] (partner 0.2 µM)
How it was run: (§1)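 Values are medians from duplicate plates. Each reflects relative viability, defined as the nuclei count of treated wells over that of vehicle wells. Lung cancer cell lines in 1536-well plates were pin-tool dosed one day after seeding with one drug alone or with a fixed anchor-drug dose plus five library-drug doses (not always all listed) in √10 steps, then fixed, stained and imaged at 4× after 5 days.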

[2] = compound: O=C(C[C@H]1NCCC[C@@H]1O)Cn1cnc2cc(Br)c(Cl)cc2c1=O (racemic) [Halofuginone] + Cc1cc(Nc2cc(N3CCN(C)CC3)nc(Sc3ccc(NC(=O)C4CC4)cc3)n2)n[nH]1 [Tozasertib] (partner 0.1 µM)
How it was run: as §1

Decitabine + Foretinib = compound: Nc1ncn([C@H]2C[C@H](O)[C@@H](CO)O2)c(=O)n1 [Decitabine] + COc1cc2c(Oc3ccc(NC(=O)C4(C(=O)Nc5ccc(F)cc5)CC4)cc3F)ccnc2cc1OCCCN1CCOCC1 [Foretinib] (partner 0.25 µM)
How it was run: as §1

Halofuginone + OSI-027 = compound: O=C(C[C@H]1NCCC[C@@H]1O)Cn1cnc2cc(Br)c(Cl)cc2c1=O (racemic) [Halofuginone] + COc1cccc2cc(-c3nc([C@H]4CC[C@H](C(=O)O)CC4)n4ncnc(N)c34)[nH]c12 [OSI-027] (partner 0.5 µM)
How it was run: as §1

Row | Cell Line | relative viability ([1]; first compound 0.001 µM) | relative viability ([1]; first compound 0.003162 µM) | relative viability ([1]; first compound 0.01 µM) | relative viability ([1]; first compound 0.03162 µM) | relative viability ([1]; first compound 0.1 µM) | relative viability ([2]; first compound 0.001 µM) | relative viability ([2]; first compound 0.003162 µM) | relative viability ([2]; first compound 0.01 µM) | relative viability ([2]; first compound 0.03162 µM) | relative viability ([2]; first compound 0.1 µM) | relative viability (Decitabine + Foretinib; first compound 0.04 µM) | relative viability (Decitabine + Foretinib; first compound 0.1265 µM) | relative viability (Decitabine + Foretinib; first compound 0.4 µM) | relative viability (Decitabine + Foretinib; first compound 1.265 µM) | relative viability (Decitabine + Foretinib; first compound 4 µM) | relative viability (Halofuginone + OSI-027; first compound 0.001 µM) | relative viability (Halofuginone + OSI-027; first compound 0.003162 µM) | relative viability (Halofuginone + OSI-027; first compound 0.01 µM) | relative viability (Halofuginone + OSI-027; first compound 0.03162 µM) | relative viability (Halofuginone + OSI-027; first compound 0.1 µM)
1 | HARA | 0.228 | 0.231 | 0.283 | 0.247 | 0.222 | 0.116 | 0.118 | 0.105 | 0.105 | 0.0853 | 0.641 | 0.558 | 0.387 | 0.215 | 0.165 | 0.68 | 0.631 | 0.536 | 0.566 | 0.399
2 | LU99A | 0.218 | 0.157 | 0.16 | 0.163 | 0.181 | 0.277 | 0.295 | 0.271 | 0.296 | 0.36 | 0.766 | 0.814 | 0.874 | 0.625 | 0.486 | 0.36 | 0.32 | 0.281 | 0.288 | 0.254
3 | NCI-H1944 | 0.611 | 0.62 | 0.579 | 0.586 | 0.496 | 0.264 | 0.282 | 0.243 | 0.237 | 0.196 | 0.766 | 0.752 | 0.567 | 0.444 | 0.396 | 0.422 | 0.431 | 0.447 | 0.404 | 0.343
4 | LK-2 | 0.25 | 0.212 | 0.294 | 0.249 | 0.241 | 0.163 | 0.164 | 0.184 | 0.16 | 0.181 | 1.45 | 1.38 | 0.849 | 0.39 | 0.381 | 0.24 | 0.237 | 0.201 | 0.221 | 0.167
5 | NCI-H441 | 0.28 | 0.263 | 0.205 | 0.261 | 0.246 | 0.737 | 0.792 | 0.568 | 0.57 | 0.256 | 0.396 | 0.401 | 0.347 | 0.25 | 0.325 | 0.737 | 0.583 | 0.591 | 0.647 | 0.336
6 | NCI-H23 | 0.637 | 0.582 | 0.494 | 0.521 | 0.495 | 0.387 | 0.399 | 0.383 | 0.387 | 0.265 | 0.692 | 0.533 | 0.393 | 0.39 | 0.359 | 0.755 | 0.554 | 0.545 | 0.441 | 0.344
7 | NCI-H647 | 0.191 | 0.171 | 0.172 | 0.155 | 0.0946 | 0.441 | 0.324 | 0.267 | 0.171 | 0.0868 | 0.966 | 0.919 | 0.509 | 0.35 | 0.234 | 0.654 | 0.623 | 0.618 | 0.715 | 0.334
8 | 201T | 0.31 | 0.329 | 0.346 | 0.311 | 0.313 | 1 | 0.813 | 0.995 | 0.779 | 0.548 | 1.18 | 1.35 | 1.02 | 0.744 | 0.727 | 0.755 | 0.775 | 0.713 | 0.474 | 0.256
9 | NCI-H1734 | 0.408 | 0.438 | 0.401 | 0.441 | 0.488 | 0.226 | 0.267 | 0.278 | 0.291 | 0.251 | 0.765 | 0.685 | 0.651 | 0.474 | 0.339 | 0.579 | 0.587 | 0.543 | 0.554 | 0.501
10 | NCI-H596 | 0.514 | 0.506 | 0.468 | 0.511 | 0.451 | 1.04 | 0.871 | 0.953 | 0.543 | 0.303 | 0.764 | 0.819 |  | 0.625 | 0.582 | 0.923 | 0.938 | 0.845 | 0.67 | 0.354
